# Data: patent US8362000B2, “Azetidinyl diamides as monoacylglycerol lipase inhibitors” (Janssen Pharmaceutica NV, priority 2009, dated 2013)
# Where a chain is given by its changes, count along the chain named. Like-named read-outs stand apart in the source and are kept apart here.
# Tests used:
# [1] = target: T1, mutant MGL (Homo sapiens, UniProt Q99685, L169S/L176S); experiment: MGL ThermoFluor assay - mutant; assay type: binding
# T1 sequence (Q99685 1-303 L169S/L176S): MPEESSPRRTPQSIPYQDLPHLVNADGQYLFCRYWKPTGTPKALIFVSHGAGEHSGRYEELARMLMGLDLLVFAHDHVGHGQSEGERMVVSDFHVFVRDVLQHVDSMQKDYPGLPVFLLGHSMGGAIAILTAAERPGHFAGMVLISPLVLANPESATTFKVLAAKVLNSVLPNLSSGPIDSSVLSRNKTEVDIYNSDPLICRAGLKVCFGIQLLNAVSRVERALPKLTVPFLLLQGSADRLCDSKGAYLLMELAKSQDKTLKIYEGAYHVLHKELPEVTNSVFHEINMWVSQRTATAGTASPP
# [2] = target: T2, purified wild type MGL (wt-MGLL 6H-11-313) (Homo sapiens, UniProt Q99685)
# T2 sequence (Q99685 1-303): T1 sequence (Q99685 1-303 L169S/L176S) with S169L, S176L
# [3] = ThermoFluor thermal stability binding assay, read-out: MGL mutant ThermoFluor Kd
# [4] = ThermoFluor concentration-response, read-out: MGL mutant ThermoFluor Kd
# [5] = ThermoFluor, compound concentration measured by qNMR, read-out: MGL mutant ThermoFluor qKd (using qNMR conc.)
# [6] = compound concentration measured by qNMR, read-out: MGL mutant ThermoFluor qKd (using qNMR conc.)
# [7] = ThermoFluor, compound concentration measured by qNMR, read-out: MGL mutant ThermoFluor qKd (μM) (using qNMR conc.)
Structure (SMILES),IC50 [2] [nM],"Kd [1, 4] [µM]",other results
"O=C(c1ccc(-c2ccccc2)cc1)N1CCN(C2CN(C(=O)c3csnn3)C2)CC1 [Cpd 1276, 1-(Biphenyl-4-ylcarbonyl)-4-[1-(1,2,3-thiadiazol-4-ylcarbonyl)azetidin-3-yl]piperazine]",1760,0.807,–
O=C(c1cnc2ccn(-c3ccc(F)cc3)c2c1)N1CC(N2CCN(C(=O)c3nccs3)CC2)C1 [Cpd 1277],1830,–,"Kd [1, 7]: 2.72 µM"
O=C(c1cccc(-c2ccc(C(F)(F)F)cc2)c1)N1CC(N2CCN(C(=O)c3cscn3)CC2)C1 [Cpd 1278],1860,5.19,–
O=C(c1cscn1)N1CCN(C2CN(C(=O)c3cn(-c4cccc(F)c4)c4ccccc34)C2)CC1 [Cpd 1279],1900,–,"Kd [1, 7]: 1.86 µM"
O=C(c1cscn1)N1CCN(C2CN(C(=O)c3cc(-c4ccccc4)ccc3F)C2)CC1 [Cpd 1280],1980,6.42,–
"O=C(c1cscn1)N1CC(N2CCN(C(=O)c3ccc(-c4ccccc4)cc3)C(Cc3ccccc3)C2)C1 (stereo not drawn) [Cpd 1284, 2-Benzyl-1-(biphenyl-4-ylcarbonyl)-4-[1-(1,3-thiazol-4-ylcarbonyl)azetidin-3-yl]piperazine]",2290,0.041,–
Cc1c(C(=O)N2CC(N3CCN(C(=O)c4cscn4)CC3)C2)cccc1-c1ccccc1 [Cpd 1285],2320,2.45,–
O=C(c1ccc(-c2ccccc2)cc1)N1CCN(C2CN(C(=O)c3cscn3)C2)C2(CC2)C1 [Cpd 1286],2420,–,"Kd [1, 3]: 0.032 µM"
Cc1nc(-c2ccccc2F)sc1C(=O)N1CC(N2CCN(C(=O)c3cscn3)CC2)C1 [Cpd 1287],2450,0.495,–
O=C(c1cscn1)N1CCN(C2CN(C(=O)c3cc(-c4ccccc4)ccc3Cl)C2)CC1 [Cpd 1288],2510,2.16,–
Cc1nc2cc(C(=O)N3CC(N4CCN(C(=O)c5cscn5)CC4)C3)ccc2n1-c1ccc(C(F)(F)F)cc1 [Cpd 1289],2600,–,"Kd [1, 6]: 0.13 µM"
O=C(c1cscn1)N1CCN(C2CN(C(=O)c3cccc4[nH]c(-c5ccc(Cl)cc5)nc34)C2)CC1 [Cpd 1290],2700,–,"Kd [1, 3]: 0.643 µM"
Cc1nc2cc(C(=O)N3CC(N4CCN(C(=O)c5cscn5)CC4)C3)ccc2n1-c1ccc(F)cc1 [Cpd 1291],2780,–,"Kd [1, 6]: 0.179 µM"
"O=C(c1ccc(-c2ccccc2)cc1)N1CCN(C2CN(C(=O)c3cc[nH]c3)C2)CC1 [Cpd 1292, 1-(Biphenyl-4-ylcarbonyl)-4-[1-(1H-pyrrol-3-ylcarbonyl)azetidin-3-yl]piperazine]",3070,0.631,–
O=C(c1ccc(-n2cnc3ccccc32)cc1)N1CC(N2CCN(C(=O)c3cscn3)CC2)C1 [Cpd 1293],3170,1.67,–
"O=C(c1nc2cc(-c3ccc(F)cc3)ccc2[nH]1)N1CC(N2CCN(C(=O)c3nccs3)CC2)C1 [Cpd 1294, 5-(4-Fluorophenyl)-2-({3-[4-(1,3-thiazol-2-ylcarbon-yl)piperazin-1-yl]azetidin-1-yl}carbonyl)-1H-benzimidazole]",3230,–,"Kd [1, 7]: 4.41 µM"
O=C(c1cscn1)N1CCN(C2CN(C(=O)c3cn(-c4ccc(F)cc4)c4ccccc34)C2)CC1 [Cpd 1295],3280,–,"Kd [1, 7]: 1.51 µM"
Cc1nc2cc(C(=O)N3CC(N4CCN(C(=O)c5cscn5)CC4)C3)ccc2n1-c1ccccc1 [Cpd 1296],3300,–,"Kd [1, 6]: 0.197 µM"
O=C(c1ccc(-n2cnc3ccccc32)cc1)N1CCN(C2CN(C(=O)c3nccs3)C2)CC1 [Cpd 1298],3850,0.474,–
O=C(c1ccc2[nH]c(-c3ccccc3)nc2c1)N1CC(N2CCN(C(=O)c3cscn3)CC2)C1 [Cpd 1299],3860,1.1,–
O=C(c1cnn(-c2ccccc2)n1)N1CC(N2CCN(C(=O)c3nccs3)CC2)C1 [Cpd 1300],4130,3.33,–
O=C(c1ccc(-n2ccc(C(F)(F)F)n2)cc1)N1CC(N2CCN(C(=O)c3cscn3)CC2)C1 [Cpd 1302],4950,–,"Kd [1, 3]: 2.5 µM"
O=C(c1cscn1)N1CCN(C2CN(C(=O)c3nn(-c4ccc(Cl)cc4Cl)c4c3CCCC4)C2)CC1 [Cpd 1304],6030,–,"Kd [1, 6]: 7.9 µM"
O=C(c1ccc(-n2cnc3ccccc32)cc1)N1CCN(C2CN(C(=O)c3cscn3)C2)CC1 [Cpd 1305],6680,0.833,–
"O=C(c1ccc(-c2ccccc2)cc1)N1CC(N2CCN(C(=O)c3nccs3)CC2C(F)(F)F)C1 (stereo not drawn) [Cpd 1306, 1-[1-(Biphenyl-4-ylcarbonyl)azetidin-3-yl]-4-(1,3-thiazol-2-ylcarbonyl)-2-(trifluoromethyl)piperazine]",8150,–,"Kd [1, 7]: 12.2 µM"
O=C(c1ccc(-c2ccccc2)cc1)N1CC(N2CCN(C(=O)c3c[nH]c4ccccc34)CC2)C1 [Cpd 1308],9280,–,"Kd [1, 3]: 2.06 µM"
O=C(c1cn[nH]c1)N1CCN(C2CN(C(=O)c3ccc(-c4ccccc4)cc3)C2)CC1 [Cpd 1310],11600,–,"Kd [1, 3]: 8.35 µM"
O=C(c1nn(-c2ccc(Cl)cc2Cl)c2c1CCCC2)N1CC(N2CCN(C(=O)C(F)(F)F)CC2)C1 [Cpd 1311],14600,–,"Kd [1, 6]: 67.5 µM"

# The next molecules have a lower IC50 [2] than those just listed; values first:
IC50 [2] [nM],"Kd [1, 4] [µM]",Structure (SMILES),other results
827,–,O=C(c1nccs1)N1CCN(C2CN(C(=O)c3cccc4oc(-c5ccc(F)cc5)nc34)C2)CC1 [Cpd 1257],"Kd [1, 3]: 0.009 µM"
829,–,O=C(c1ccc(-c2cccc(C(F)(F)F)c2)cc1)N1CCN(C2CN(C(=O)c3cocn3)C2)CC1 [Cpd 1258],"Kd [1, 3]: 0.02 µM"
862,0.221,Cc1cc(-c2cccc(C(F)(F)F)c2)ccc1C(=O)N1CCN(C2CN(C(=O)c3nccs3)C2)CC1 [Cpd 1260],–
932,–,O=C(c1cscn1)N1CCN(C2CN(C(=O)c3cc(-c4ccccc4)n(-c4ccccc4)n3)C2)CC1 [Cpd 1261],"Kd [1, 3]: 0.831 µM"
950,–,O=C(c1ccc(-c2ccccc2)cc1)N1CC(N2CCN(C(=O)c3ccon3)CC2)C1 [Cpd 1262],"Kd [1, 3]: 0.278 µM"
968,–,"O=C(c1ccc2c(ccn2-c2cncnc2)c1)N1CC(N2CCN(C(=O)c3nccs3)CC2)C1 [Cpd 1263, 1-Pyrimidin-5-yl-5-({3-[4-(1,3-thiazol-2-ylcarbonyl)piperazin-1-yl]azetidin-1-yl}carbonyl)-1H-indole]","Kd [1, 5]: 0.215 µM"
986,–,Cc1nc2cc(C(=O)N3CC(N4CCN(C(=O)c5cscn5)CC4)C3)ccc2n1-c1ccc(F)c(F)c1 [Cpd 1264],"Kd [1, 6]: 0.251 µM"
1080,0.032,"O=C(c1nccs1)N1CC(N2CCN(C(=O)c3ccc(-c4ccccc4)cc3)C(Cc3ccccc3)C2)C1 (stereo not drawn) [Cpd 1266, 2-Benzyl-1-(biphenyl-4-ylcarbonyl)-4-[1-(1,3-thiazol-2-ylcarbonyl)azetidin-3-yl]piperazine]",–
1220,–,O=C(c1ccc(-c2ccc(C(F)(F)F)s2)cc1)N1CC(N2CCN(C(=O)c3cncs3)CC2)C1 [Cpd 1268],"Kd [1, 6]: 0.039 µM"
1260,–,O=C(c1ccc(-c2ccccc2)cc1)N1CC(N2CCN(C(=O)c3c[nH]nn3)CC2)C1 [Cpd 1269],"Kd [1, 3]: 1.16 µM"
1570,1,O=C(c1ccc2[nH]c(-c3ccccc3)nc2c1)N1CCN(C2CN(C(=O)c3nccs3)C2)CC1 [Cpd 1271],–
1610,–,Cc1nc(-c2ccncc2)sc1C(=O)N1CC(N2CCN(C(=O)c3nccs3)CC2)C1 [Cpd 1272],"Kd [1, 5]: 0.399 µM"
1610,1.83,O=C(c1cc(F)cc(-c2ccccc2)c1)N1CC(N2CCN(C(=O)c3cscn3)CC2)C1 [Cpd 1273],–
< 5,–,"O=C(c1ccc2c(ccn2-c2ccc(C(F)(F)F)cn2)c1)N1CC(N2CCN(C(=O)c3nccs3)CC2)C1 [Cpd 1314, 5-({3-[4-(1,3-Thiazol-2-ylcarbonyl)piperazin-1-yl]azetidin-1-yl}carbonyl)-1-[5-(trifluoromethyl)pyridin-2-yl]-1H-indole]","Kd [1, 5]: 0.001 µM"
< 5,–,O=C(c1ccc2c(-c3cccc(F)c3)c[nH]c2c1)N1CC(N2CCN(C(=O)c3nccs3)CC2)C1 [Cpd 1319],"Kd [1, 6]: 0.001 µM"
< 5,–,O=C(c1cc(-c2cccc(C(F)(F)F)c2)cs1)N1CC(N2CCN(C(=O)c3nccs3)CC2)C1 [Cpd 1321],"Kd [1, 7]: 0.067 µM"
< 5,–,O=C(c1cc[nH]c1)N1CCN(C2CN(C(=O)c3ccc(-c4cccc(C(F)(F)F)c4)cc3)C2)CC1 [Cpd 1324],"Kd [1, 3]: 0.016 µM"
< 5,0.002,O=C(c1ccc(-c2nc(-c3ccccc3Cl)cs2)cc1)N1CC(N2CCN(C(=O)c3nccs3)CC2)C1 [Cpd 1328],–
< 5,–,O=C(c1ccc(-c2nc(-c3cccc(C(F)(F)F)c3)cs2)cc1)N1CC(N2CCN(C(=O)c3nccs3)CC2)C1 [Cpd 1332],"Kd [1, 5]: 0.008 µM"
< 5,–,O=C(c1ccc(-n2cc(-c3ccc(Cl)cc3)cn2)cc1)N1CC(N2CCN(C(=O)c3nccs3)CC2)C1 [Cpd 1334],"Kd [1, 7]: 0.08 µM"
